Values quoted from earlier work as cited in US20150108064A1, “Production Of Channel Type Cyclodextrin Crystals” (Amphidex A/S, priority 2012, published 2015).

Assays:
[1] = maximum safe concentration in the air, worker exposed daily

Row | Compound | TLV [1] [ppm] | Solubility in H2O [g/100 g]
1 | CCCO [1-propanol] | 200 | 
2 | CC(C)=O [Acetone] | 500 | 
3 | ClC(Cl)Cl [Chloroform] | 10 | 
4 | C1CCCCC1 [Cyclohexane] | 300 | 0.005
5 | CCO [Ethanol] | 1000 | 
6 | CCOC(C)=O [Ethyl acetate] | 400 | 8.700
7 | CCCCCCC [Heptane] | 400 | 
8 | CCCCCC [Hexane] | 50 | 0.001
9 | CCCCC [Pentane] |  | 0.004
10 | C1CCOC1 [THF, Tetrahydrofuran] | 200 | 
